Measured values from the NIST ThermoML archive (doi:10.1016/j.fluid.2006.07.013).
± gives the expanded uncertainty stated by the source.

Assay: xn = mol fraction of the nth substance listed

CC(C)COC(=O)CCCCC(=O)OCC(C)C [diisobutyl adipate] + O=C=O
Conditions | mass density [kg/m3]
294.75 K, Liquid, Volume and mass of phase, x1 = 0.11 | 807 ± 24
295.25 K, Liquid, Volume and mass of phase, x1 = 0.039 | 795 ± 24
298.95 K, Liquid, Volume and mass of phase, x1 = 0.11 | 805 ± 24
302.75 K, Liquid, Volume and mass of phase, x1 = 0.096 | 814 ± 24
304.65 K, Liquid, Volume and mass of phase, x1 = 0.11 | 805 ± 24
305.35 K, Gas, volume and mass of phase, x1 = 0.011 | 702 ± 21
305.75 K, Liquid, Volume and mass of phase, x1 = 0.039 | 764 ± 23
308.85 K, Liquid, Volume and mass of phase, x1 = 0.11 | 791 ± 24
310.35 K, Liquid, Volume and mass of phase, x1 = 0.064 | 793 ± 24
311.05 K, Gas, volume and mass of phase, x1 = 0.011 | 667 ± 20
311.25 K, Liquid, Volume and mass of phase, x1 = 0.161 | 865 ± 26
311.95 K, Liquid, Volume and mass of phase, x1 = 0.592 | 813 ± 24
312.15 K, Liquid, Volume and mass of phase, x1 = 0.282 | 853 ± 26
314.45 K, Liquid, Volume and mass of phase, x1 = 0.11 | 789 ± 24
316.85 K, Liquid, Volume and mass of phase, x1 = 0.039 | 739 ± 22
322.15 K, Liquid, Volume and mass of phase, x1 = 0.096 | 800 ± 24
322.55 K, Liquid, Volume and mass of phase, x1 = 0.11 | 791 ± 24
323.65 K, Liquid, Volume and mass of phase, x1 = 0.282 | 832 ± 25
329.95 K, Gas, volume and mass of phase, x1 = 0.011 | 639 ± 19
330.75 K, Liquid, Volume and mass of phase, x1 = 0.11 | 766 ± 23
332.65 K, Liquid, Volume and mass of phase, x1 = 0.039 | 732 ± 22
332.75 K, Liquid, Volume and mass of phase, x1 = 0.592 | 829 ± 25
337.45 K, Liquid, Volume and mass of phase, x1 = 0.282 | 821 ± 25
342.05 K, Liquid, Volume and mass of phase, x1 = 0.11 | 756 ± 23
343.35 K, Liquid, Volume and mass of phase, x1 = 0.064 | 762 ± 23
345.25 K, Liquid, Volume and mass of phase, x1 = 0.039 | 702 ± 21
347.35 K, Liquid, Volume and mass of phase, x1 = 0.096 | 768 ± 23
350.15 K, Liquid, Volume and mass of phase, x1 = 0.282 | 810 ± 24
351.35 K, Liquid, Volume and mass of phase, x1 = 0.592 | 819 ± 25
353.25 K, Liquid, Volume and mass of phase, x1 = 0.161 | 791 ± 24
356.25 K, Liquid, Volume and mass of phase, x1 = 0.11 | 740 ± 22
357.45 K, Gas, volume and mass of phase, x1 = 0.011 | 558 ± 17
357.75 K, Liquid, Volume and mass of phase, x1 = 0.039 | 675 ± 20
360.85 K, Liquid, Volume and mass of phase, x1 = 0.064 | 724 ± 22
363.05 K, Liquid, Volume and mass of phase, x1 = 0.282 | 800 ± 24
366.65 K, Liquid, Volume and mass of phase, x1 = 0.039 | 660 ± 20
369.85 K, Liquid, Volume and mass of phase, x1 = 0.096 | 731 ± 22
370.95 K, Liquid, Volume and mass of phase, x1 = 0.592 | 807 ± 24
371.25 K, Liquid, Volume and mass of phase, x1 = 0.11 | 723 ± 22
371.55 K, Liquid, Volume and mass of phase, x1 = 0.282 | 791 ± 24
376.85 K, Gas, volume and mass of phase, x1 = 0.039 | 638 ± 19
378.45 K, Gas, volume and mass of phase, x1 = 0.011 | 518 ± 16
380.95 K, Liquid, Volume and mass of phase, x1 = 0.161 | 760 ± 23
381.65 K, Liquid, Volume and mass of phase, x1 = 0.064 | 687 ± 21
383.95 K, Liquid, Volume and mass of phase, x1 = 0.282 | 776 ± 23
391.15 K, Liquid, Volume and mass of phase, x1 = 0.592 | 790 ± 24
392.25 K, Liquid, Volume and mass of phase, x1 = 0.096 | 696 ± 21
400.05 K, Gas, volume and mass of phase, x1 = 0.064 | 655 ± 20
400.55 K, Liquid, Volume and mass of phase, x1 = 0.282 | 760 ± 23
401.45 K, Gas, volume and mass of phase, x1 = 0.039 | 588 ± 18
401.65 K, Liquid, Volume and mass of phase, x1 = 0.11 | 681 ± 21
404.55 K, Gas, volume and mass of phase, x1 = 0.011 | 471 ± 14
408.05 K, Liquid, Volume and mass of phase, x1 = 0.161 | 721 ± 22
409.85 K, Liquid, Volume and mass of phase, x1 = 0.592 | 777 ± 23
419.65 K, Liquid, Volume and mass of phase, x1 = 0.282 | 740 ± 22
420.05 K, Liquid, Volume and mass of phase, x1 = 0.096 | 651 ± 20
421.25 K, Gas, volume and mass of phase, x1 = 0.064 | 617 ± 19
421.85 K, Liquid, Volume and mass of phase, x1 = 0.161 | 706 ± 21
423.15 K, Liquid, Volume and mass of phase, x1 = 0.592 | 772 ± 23
423.65 K, Liquid, Volume and mass of phase, x1 = 0.11 | 650 ± 20
424.65 K, Gas, volume and mass of phase, x1 = 0.039 | 541 ± 16
